Results on eleven compounds are retold here after ChEMBL document CHEMBL1201862, “PubChem BioAssay data set” (2004).

Holding throughout (assay): inhibition of tumour cell growth, NCI panel, 48 h
Experiment [1] concerns BT-549.
In experiment [2] the test system is CAKI-1.
Experiment [3] concerns HCT-116.
Experiment [4] deals with KM12.
Experiment [5] concerns M14.
Experiment [6] concerns MCF7.
Experiment [7] has as its system MDA-MB-435.
Experiment [8] relates to MDA-N.
Experiment [9] has as its system NCI-H23.
The test system of experiment [10] is NCI-H522.
For experiment [11], the system named is OVCAR-5.
Experiment [12] relates to OVCAR-8.
Experiment [13] concerns RPMI-8226.
Experiment [14] relates to SF-539.
For experiment [15], the system named is SK-OV-3.
For experiment [16], the system named is SN12C.
In experiment [17] the test system is SNB-19.
Experiment [18] deals with UACC-62.
For experiment [19], the system named is A498.

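All cell lines were grown in 96-well plates and treated with compound for 48 hours. The concentration for 50% growth inhibition is given as GI50.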 Active and inactive are the calls of the source. Cut-off read from the data, not from the text of the source: active = GI50 up to about 1.1 µM and inactive = higher.

For `O=C1O/C(=C\C=C\CO)C=C1/C=C/CO` [LISSOCLINOLIDE], the GI50 in experiment [1] is 20 µM (inactive); in experiment [2] it was 14.5 µM (inactive); in experiment [3], 14 µM (inactive); in experiment [4], 36.9 µM (inactive); in experiment [5], 20.2 µM (inactive); in experiment [6] it was 36.3 µM (inactive). The GI50 in [7] is 35.7 µM (inactive); in [8] it was 21.3 µM (inactive); in experiment [9], 18.5 µM (inactive); in [10] it was 10.3 µM (inactive); in [11], 20 µM (inactive); in [12] it was 19.2 µM (inactive). Further, the GI50 is 16.4 µM (inactive) in [13]; 24.1 µM (inactive) in [14]; 61.2 µM (inactive) in experiment [15]; 27.9 µM (inactive) in [16]; 23.5 µM (inactive) in [17]; 18.9 µM (inactive) in [18].

As to `CC(=O)O[C@H]1CC[C@@]2(C)C(=CC[C@@H]3[C@@H]2CC[C@]2(C)c4c(C)n[nH]c4C[C@@H]32)C1`, the GI50 was 20.3 µM (inactive) in experiment [19]; 15.2 µM (inactive) in experiment [1]; 16.8 µM (inactive) in experiment [2]; 11.2 µM (inactive) in experiment [3]; 15.3 µM (inactive) in [4]; 16 µM (inactive) in experiment [5]. Moreover, the GI50 was 11.5 µM (inactive) in experiment [6]; 16 µM (inactive) in experiment [7]; 20.1 µM (inactive) in [8]; 14.1 µM (inactive) in [9]; 6.92 µM (inactive) in experiment [10]; 14.9 µM (inactive) in [11]. For the same compound, the GI50 in experiment [12] was 31 µM (inactive); in [15], 26.9 µM (inactive); in [16], 19.4 µM (inactive); in [17], 19.5 µM (inactive); in experiment [18] it was 12 µM (inactive).

With `c1ccc2c(c1)/C(=N\NC1=NCCN1)c1nc3ccccc3nc1-2`, the GI50 was 20.9 µM (inactive) in [1]; 0.863 µM (active) in experiment [3]; 3.88 µM (inactive) in [4]; 6.65 µM (inactive) in experiment [5]; 3.32 µM (inactive) in experiment [6]; 6.32 µM (inactive) in experiment [7]. The GI50 in experiment [8] is 7.19 µM (inactive); in experiment [9], 8.73 µM (inactive); in experiment [10], 2.84 µM (inactive); in experiment [11] it was 6.64 µM (inactive); in experiment [12], 1.35 µM (inactive); in experiment [13] it was 1 µM (active). Also, the GI50 in experiment [14] was 5.31 µM (inactive); in experiment [15], 1.54 µM (inactive); in [16], 8.51 µM (inactive); in experiment [17], 6.44 µM (inactive); in experiment [18], 2.49 µM (inactive).

For the compound `OCC1OC(NCCNCCNC2OC(CO)C(O)C(O)C2O)C(O)C(O)C1O` (centres undefined), the GI50 in experiment [19], in experiment [1], in experiment [3], in experiment [5], in experiment [6] and in [8] was > 100 µM (inactive) throughout. In addition, the GI50 in experiment [9], in experiment [10], in experiment [11], in experiment [12], in [13] and in experiment [14] was > 100 µM (inactive) each time. The GI50 in experiment [15], in [16], in experiment [17] and in experiment [18] was > 100 µM (inactive) in each case.

Turning to `Cn1/c(=N\N=C2\C=C3CCCCC3(C)CC2)sc2ccccc21` (centres undefined), the GI50 in experiment [19], in experiment [1], in experiment [2], in [3], in experiment [4] and in [5] was > 100 µM (inactive) each time. Moreover, the GI50 in [6], in [7], in experiment [8], in experiment [9], in experiment [10] and in [11] was > 100 µM (inactive) in each case. The GI50 in experiment [12], in [14], in experiment [15], in [16], in experiment [17] and in experiment [18] was > 100 µM (inactive) each time.

Take `OC(Cc1ccccc1)(Cc1ccccc1)c1ccccc1`: the GI50 in experiment [19] was 19.9 µM (inactive); in experiment [1], 18.7 µM (inactive); in experiment [2], 23.2 µM (inactive); in [3], 16.2 µM (inactive); in [4], 18.3 µM (inactive); in experiment [5] it was 17.7 µM (inactive). For the same compound, the GI50 is 17.5 µM (inactive) in [7]; 15.2 µM (inactive) in experiment [8]; 18.8 µM (inactive) in [9]; 14.7 µM (inactive) in [10]; 17.2 µM (inactive) in experiment [11]; 19 µM (inactive) in experiment [12]. Also, the GI50 in experiment [13] is 29.3 µM (inactive); in [16] it was 17 µM (inactive); in [17], 26.1 µM (inactive); in [18] it was 16.9 µM (inactive).

Consider `CC1(C)CC(=O)C(=CNC(=O)c2ccncc2)C(=O)C1`, for which the GI50 in experiment [1], in [2], in [3], in experiment [4], in experiment [5] and in [6] was > 100 µM (inactive) each time. Moreover, the GI50 in [7], in experiment [8], in experiment [9], in experiment [10], in [11] and in experiment [12] was > 100 µM (inactive) throughout. Also, the GI50 in experiment [14], in experiment [15], in experiment [16], in experiment [17] and in [18] was > 100 µM (inactive) in each case.

Take `CC1=CC(=O)C(=C(C)C)CC1`: the GI50 in experiment [1], in experiment [2], in experiment [3], in experiment [4], in experiment [5] and in experiment [6] was > 100 µM (inactive) throughout. For the same compound, the GI50 in experiment [7], in experiment [8], in experiment [9], in [10], in experiment [11] and in experiment [12] was > 100 µM (inactive) throughout. The GI50 in experiment [15], in experiment [16], in experiment [17] and in experiment [18] was > 100 µM (inactive) throughout.

With `O=S1(=O)OCCCOS(=O)(=O)C1Br`, the GI50 in experiment [1], in [2], in experiment [3], in [4], in experiment [5] and in experiment [6] was > 100 µM (inactive) each time. For the same compound, the GI50 in experiment [7], in [8], in [9], in [10], in [11] and in experiment [12] was > 100 µM (inactive) each time. The GI50 in [13], in [14], in experiment [15], in experiment [16], in experiment [17] and in experiment [18] was > 100 µM (inactive) in each case.

For the compound `O=C(O)/C=C/C(=O)N1Cc2cc3ccccc3nc2C1`, the GI50 in experiment [1], in experiment [2], in [3], in experiment [4], in experiment [5] and in [6] was > 100 µM (inactive) each time. Besides, the GI50 in [7], in experiment [8], in [9], in [10], in experiment [11] and in experiment [12] was > 100 µM (inactive) each time. Moreover, the GI50 in experiment [13], in experiment [14], in experiment [15], in [16], in experiment [17] and in experiment [18] was > 100 µM (inactive) throughout.

On to `O=C(/C=C/c1csc(-c2ccccc2)n1)NCc1ccc(C(=O)NCc2ccccc2)cc1`, for which the GI50 is 64.9 µM (inactive) in experiment [19]; > 100 µM (inactive) in [1]; 25.2 µM (inactive) in experiment [2]; > 100 µM (inactive) in experiment [3]; > 100 µM (inactive) in experiment [4]; > 100 µM (inactive) in experiment [5]. The GI50 in experiment [6] was > 100 µM (inactive); in experiment [7], > 100 µM (inactive); in experiment [9], > 100 µM (inactive); in experiment [10], 64.7 µM (inactive); in experiment [11], > 100 µM (inactive); in experiment [12] it was 26.4 µM (inactive). For the same compound, the GI50 was > 100 µM (inactive) in experiment [13]; 32.3 µM (inactive) in [14]; > 100 µM (inactive) in [15]; > 100 µM (inactive) in [16]; 26.5 µM (inactive) in experiment [17]; > 100 µM (inactive) in [18].
